Data as given in US20260159520A1, “HETEROBIFUNCTIONAL COMPOUNDS AND METHODS OF TREATING DISEASE” (Halda Therapeutics OpCo, Inc., priority 2022, published 2026).

Assays:
Assay type in all cases: cell-based
[1] = tested on: T-Rex 293 cell line SC3 cells having increased expression of androgen receptor protein; experiment: Cellular growth inhibition, T-Rex 293 SC3 cells with doxycycline (increased androgen receptor expression); conditions: with 10 ng/mL doxycycline (increased androgen receptor), 72 hours, CellTiter-Glo 2.0
Method in brief: (§1)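 Doxycycline (10 ng/mL) was either included or omitted to toggle wild-type androgen receptor expression in SC3 cells, a T-Rex 293 clone, grown in stripped-serum, phenol red-free medium. After 72 hours with compound, viable cells were quantified by CellTiter-Glo 2.0.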

[2] = tested on: T-Rex 293 cell line SC3 cells lacking increased expression of androgen receptor protein; experiment: Cellular growth inhibition, T-Rex 293 SC3 cells without doxycycline; conditions: not exposed to doxycycline, 72 hours, CellTiter-Glo 2.0
Method in brief: as §1

[3] = tested on: T47D cells; experiment: Cellular growth inhibition assay for T47D cells; conditions: Homo sapiens, 72 hours, CellTiter-Glo 2.0
Method in brief: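 Cells are plated at 3000/well and allowed 24 h before treatment. Test compound in medium containing 0.5% DMSO is then added, with DMSO-only wells as negative control, and plates are incubated 72 h at 37 °C. ATP luminescence (CellTiter-Glo 2.0) is then fitted to four parameters to derive GI50.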

[4] = tested on: VCaP cells; experiment: Cellular growth inhibition assay for VCaP cells; conditions: Homo sapiens, 72 hours, CellTiter-Glo 2.0

Row | Compound | GI50 [1] | GI50 [2] | GI50 [3] | GI50 [4]
1 | CCc1cnn2c(NCc3ccc(OCCN(C)c4ncc(C(=O)N[C@H]5C(C)(C)[C@H](Oc6ccc(C#N)c(Cl)c6)C5(C)C)cn4)nc3)cc(N3CCCC[C@H]3CCO)nc12 [Compound I-1] | 100 to 1000 nM | 100 to 1000 nM | 500 to 1500 nM | –
2 | CCc1cnn2c(NCc3ccc(OCCOCCOCCOCCOCCN(C)c4ncc(C(=O)N[C@H]5C(C)(C)[C@H](Oc6ccc(C#N)c(Cl)c6)C5(C)C)cn4)nc3)cc(N3CCCC[C@H]3CCO)nc12 [Compound I-3] | < 100 nM | 100 to 1000 nM | – | < 100 nM
3 | CCc1cnn2c(NCc3ccc(=O)n(CCOCCOCCOCCOCCOCCOCCN(C)c4ncc(C(=O)N[C@H]5C(C)(C)[C@H](Oc6ccc(C#N)c(Cl)c6)C5(C)C)cn4)c3)cc(N3CCCC[C@H]3CCO)nc12 [Compound I-4, N-((1r,3r)-3-(3-chloro-4-cyanophenoxy)-2,2,4,4-tetramethylcyclobutyl)-2-((20-(5-(((3-ethyl-5-((S)-2-(2-hydroxyethyl)piperidin-1-yl)pyrazolo[1,5-a]pyrimidin-7-yl)amino)methyl)-2-oxopyridin-1(2H)-yl)-3,6,9,12,15,18-hexaoxaicosyl)(methyl)amino)pyrimidine-5-carboxamide] | 100 to 1000 nM | 100 to 1000 nM | – | –
4 | CCc1cnn2c(NCc3ccc(OCCOCCOCCOCCOCCOCCOCCN(C)c4ncc(C(=O)N[C@H]5C(C)(C)[C@H](Oc6ccc(C#N)c(Cl)c6)C5(C)C)cn4)nc3)cc(N3CCCC[C@H]3CCO)nc12 [Compound I-5] | 100 to 1000 nM | 1000 to 3500 nM | – | –
5 | CCc1cnn2c(NCc3ccc(OCCOC4CCN(c5ncc(C(=O)N[C@H]6C(C)(C)[C@H](Oc7ccc(C#N)c(Cl)c7)C6(C)C)cn5)CC4)nc3)cc(N3CCCC[C@H]3CCO)nc12 [Compound I-7, N-((1r,3r)-3-(3-chloro-4-cyanophenoxy)-2,2,4,4-tetramethylcyclobutyl)-2-(4-(2-((5-(((3-ethyl-5-((S)-2-(2-hydroxyethyl)piperidin-1-yl)pyrazolo[1,5-a]pyrimidin-7-yl)amino)methyl)pyridin-2-yl)oxy)ethoxy)piperidin-1-yl)pyrimidine-5-carboxamide] | > 3500 nM | > 3500 nM | > 3000 nM | 1000 to 3500 nM
6 | CCc1cnn2c(NCc3ccc(OCCOCCOCCOC4CCN(c5ncc(C(=O)N[C@H]6C(C)(C)[C@H](Oc7ccc(C#N)c(Cl)c7)C6(C)C)cn5)CC4)nc3)cc(N3CCCC[C@H]3CCO)nc12 [Compound I-8] | < 100 nM | 100 to 1000 nM | < 500 nM | < 100 nM
7 | CCc1cnn2c(NCc3ccc(OCCOCCOCCOCCOCCOC4CCN(c5ncc(C(=O)N[C@H]6C(C)(C)[C@H](Oc7ccc(C#N)c(Cl)c7)C6(C)C)cn5)CC4)nc3)cc(N3CCCC[C@H]3CCO)nc12 [Compound I-9] | < 100 nM | 100 to 1000 nM | – | < 100 nM
8 | CC1(C)[C@H](NC(=O)c2cnc(N3CCC(OCCNS(=O)(=O)c4ccc(Nc5ncc(Br)c(Nc6cccc(F)c6C(N)=O)n5)cc4)CC3)nc2)C(C)(C)[C@H]1Oc1ccc(C#N)c(Cl)c1 [Compound I-13, 2-(4-(2-((4-((5-bromo-4-((2-carbamoyl-3-fluorophenyl)amino)pyrimidin-2-yl)amino)phenyl)sulfonamido)ethoxy)piperidin-1-yl)-N-((1 r,3r)-3-(3-chloro-4-cyanophenoxy)-2,2,4,4-tetramethylcyclobutyl)pyrimidine-5-carboxamide] | > 3500 nM | > 3500 nM | < 500 nM | –
9 | CCc1cnn2c(NCc3ccc(OCCCCOCCOC4CCN(c5ncc(C(=O)N[C@H]6C(C)(C)[C@H](Oc7ccc(C#N)c(Cl)c7)C6(C)C)cn5)CC4)nc3)cc(N3CCCC[C@H]3CCO)nc12 [Compound I-34] | < 100 nM | > 3500 nM | – | < 100 nM
10 | CCc1cnn2c(NCc3ccc(OCCN4CCN(CC5CCN(c6ncc(C(=O)N[C@H]7C(C)(C)[C@H](Oc8ccc(C#N)c(Cl)c8)C7(C)C)cn6)CC5)CC4)nc3)cc(N3CCCC[C@H]3CCO)nc12 [Compound I-41] | < 100 nM | 100 to 1000 nM | < 500 nM | < 100 nM
11 | CCc1cnn2c(NCc3ccc(COCCN4CCN(CC5CCN(c6ncc(C(=O)N[C@H]7C(C)(C)[C@H](Oc8ccc(C#N)c(Cl)c8)C7(C)C)cn6)CC5)CC4)nc3)cc(N3CCCC[C@H]3CCO)nc12 [Compound I-42] | < 100 nM | 100 to 1000 nM | < 500 nM | < 100 nM
12 | CCc1cnn2c(NCc3ccc(OCCCCN4CCN(CC5CCN(c6ncc(C(=O)N[C@H]7C(C)(C)[C@H](Oc8ccc(C#N)c(Cl)c8)C7(C)C)cn6)CC5)CC4)nc3)cc(N3CCCC[C@H]3CCO)nc12 [Compound I-43] | < 100 nM | 100 to 1000 nM | < 500 nM | < 100 nM
13 | CCc1cnn2c(NCc3ccc(OCCOCCOCCOC4CCN(c5ccc(C(=O)N[C@H]6C(C)(C)[C@H](Oc7ccc(C#N)c(Cl)c7)C6(C)C)nn5)CC4)nc3)cc(N3CCCC[C@H]3CCO)nc12 [Compound I-44, N-((1r,3r)-3-(3-chloro-4-cyanophenoxy)-2,2,4,4-tetramethylcyclobutyl)-6-(4-(2-(2-(2-((5-(((3-ethyl-5-((S)-2-(2-hydroxyethyl)piperidin-1-yl)pyrazolo[1,5-a]pyrimidin-7-yl)amino)methyl)pyridin-2-yl)oxy)ethoxy)ethoxy)ethoxy)piperidin-1-yl)pyridazine-3-carboxamide] | 100 to 1000 nM | 100 to 1000 nM | < 500 nM | –
14 | CCc1cnn2c(NCc3ccc(OCCOCC4CCN(CC5CCN(c6ncc(C(=O)N[C@H]7C(C)(C)[C@H](Oc8ccc(C#N)c(Cl)c8)C7(C)C)cn6)CC5)CC4)nc3)cc(N3CCCC[C@H]3CCO)nc12 [Compound I-45] | < 100 nM | 100 to 1000 nM | – | < 100 nM
15 | CCc1cnn2c(NCc3ccc(OC4CCN(CC5CCN(c6ncc(C(=O)N[C@H]7C(C)(C)[C@H](Oc8ccc(C#N)c(Cl)c8)C7(C)C)cn6)CC5)CC4)nc3)cc(N3CCCC[C@H]3CCO)nc12 [Compound I-46] | < 100 nM | 100 to 1000 nM | < 500 nM | 100 to 1000 nM
16 | CCc1cnn2c(NCc3ccc(OCCN4CCN(CC5CCN(c6ncc(C(=O)N[C@H]7C(C)(C)[C@H](Oc8ccc(C#N)c(Cl)c8)C7(C)C)cn6)CC5)CC4)nc3)cc(-c3ccccc3)nc12 [Compound I-47, N-((1r,3r)-3-(3-chloro-4-cyanophenoxy)-2,2,4,4-tetramethylcyclobutyl)-2-(4-((4-(2-((5-(((3-ethyl-5-phenylpyrazolo[1,5-a]pyrimidin-7-yl)amino)methyl)pyridin-2-yl)oxy)ethyl)piperazin-1-yl)methyl)piperidin-1-yl)pyrimidine-5-carboxamide] | 100 to 1000 nM | > 3500 nM | > 3000 nM | > 3500 nM
17 | CCc1cnn2c(NCc3ccc(OCC4CCN(CC5CCN(c6ncc(C(=O)N[C@H]7C(C)(C)[C@H](Oc8ccc(C#N)c(Cl)c8)C7(C)C)cn6)CC5)CC4)nc3)cc(N3CCCC[C@H]3CCO)nc12 [Compound I-51] | < 100 nM | 100 to 1000 nM | < 500 nM | < 100 nM
18 | CCc1cnn2c(NCc3ccc(OCCCN4CCN(CC5CCN(c6ccc(C(=O)N[C@H]7C(C)(C)[C@H](Oc8ccc(C#N)c(Cl)c8)C7(C)C)cn6)CC5)CC4)nc3)cc(N3CCCC[C@@H]3CCO)nc12 [Compound I-55, N-((1r,3r)-3-(3-chloro-4-cyanophenoxy)-2,2,4,4-tetramethylcyclobutyl)-6-(4-((4-(3-((5-(((3-ethyl-5-((R)-2-(2-hydroxyethyl)piperidin-1-yl)pyrazolo[1,5-a]pyrimidin-7-yl)amino)methyl)pyridin-2-yl)oxy)propyl)piperazin-1-yl)methyl)piperidin-1-yl)nicotinamide] | < 100 nM | 100 to 1000 nM | < 500 nM | < 100 nM
19 | CCc1cnn2c(NCc3ccc(OCCCN4CCN(C5CN(c6ncc(C(=O)N[C@H]7C(C)(C)[C@H](Oc8ccc(C#N)c(Cl)c8)C7(C)C)cn6)C5)CC4)nc3)cc(N3CCCC[C@H]3CCO)nc12 [Compound I-60] | < 100 nM | < 100 nM | < 500 nM | < 100 nM
20 | CCc1cnn2c(NCc3ccc(OCCCN4CCC(C5CN(c6ncc(C(=O)N[C@H]7C(C)(C)[C@H](Oc8ccc(C#N)c(Cl)c8)C7(C)C)cn6)C5)CC4)nc3)cc(N3CCCC[C@H]3CCO)nc12 [Compound I-61] | < 100 nM | 100 to 1000 nM | < 500 nM | < 100 nM
21 | CCc1cnn2c(NCc3ccc(N4CCC(CN5CCC6CN(c7ncc(C(=O)N[C@H]8C(C)(C)[C@H](Oc9ccc(C#N)c(Cl)c9)C8(C)C)cn7)CCC6C5)CC4)nc3)cc(N3CCCC[C@H]3CCO)nc12 (stereo partly drawn) [Compound I-71] | < 100 nM | > 3500 nM | 1500 to 3000 nM | 1000 to 3500 nM
22 | CCc1cnn2c(NCc3ccc(N4CC(OCCN5CC6CN(c7ncc(C(=O)N[C@H]8C(C)(C)[C@H](Oc9ccc(C#N)c(Cl)c9)C8(C)C)cn7)CC6C5)C4)nc3)cc(N3CCCC[C@H]3CCO)nc12 (stereo partly drawn) [Compound I-72] | 100 to 1000 nM | 100 to 1000 nM | 1500 to 3000 nM | 100 to 1000 nM
23 | CC(C)n1cc(-c2ccnc3[nH]c(C4CCN(CCN5CCN(CC6CCN(c7ncc(C(=O)NC8C(C)(C)C(Oc9ccc(C#N)c(Cl)c9)C8(C)C)cn7)CC6)CC5)CC4)cc23)ccc1=O (stereo not drawn) [Compound I-74, N-[3-(3-chloro-4-cyano-phenoxy)-2,2,4,4-tetramethyl-cyclobutyl]-2-[4-[[4-[2-[4-[4-(1-isopropyl-6-oxo-3-pyridyl)-1H-pyrrolo [2,3-b]pyridin-2-yl]-1-piperidyl]ethyl]piperazin-1-yl]methyl]-1-piperidyl]pyrimidine-5-carboxamide] | < 100 nM | 100 to 1000 nM | < 500 nM | < 100 nM
